Counter-ions that a name gives are not always drawn.
Legend:
[1] = tested on: shunt pathway; test: Test Code 036 (C-Shunt inhibitor): lysis of human erythrocytes in autologous serum via shunt pathway activated by cobra venom factor; type: biochemical; details: activity in wells, twofold serial dilution; higher well number indicates higher activity
Description: (§1) An active inhibitor protects C2 from C1 and C4; (ii) Test Code 035 (C3-C9 inhibitor)--This test determines the ability of the late components of human complement (C3-C9) to lyse EAC 142 in the presence of appropriate dilutions of the test compound. An active inhibitor protects EAC 142 from lysis by human C3-C9; (iii) Test Code 036 (C-Shunt inhibitor)--In this test human erythrocytes rendered fragile are lysed in autologous serum via the shunt pathway activated by cobra venom factor in the presence of appropriate dilutions of the test compound. Inhibition of the shunt pathway results in failure of lysis; (iv) Forssman Vasculitis Test--Here, the well known complement dependent lesion, Forssman vasculitis, is produced in guinea pigs by intradermal injection of rabbit anti-Forssman antiserum. The lesion is measured in terms of diameter, edema and hemorrhage and the extent to which a combined index of these is inhibited by prior intraperitoneal injection of the test compound at 200 mg/kg is then reported, unless otherwise stated; (v) Forssman Shock Test--Lethal shock is produced in guinea pigs by an i.v. injection of anti-Forssman antiserum and the harmonic mean death time of treated guinea pigs is compared with that of the simultaneous controls; (vi) Complement Level Reduction Test--In this test, the above dosed guinea pigs, or others are bled for serum and the complmenet level is determined in undiluted serum by the capillary tube method of U.S. Pat. No. 3,876,376 and compared to undosed control guinea pigs; (vii) Cap 50 Test--Here, appropriate amounts of the test compound are added to a pool of guinea pig serum in vitro, after which the undiluted serum capillary tube assay referred to above is run. The concentration of compound inhibiting 50% is reported.
(§2) **Activity in wells, a serial dilution assay; higher well number indicate
(§3) higher activity. The serial dilutions are twofold-

[2] = target: human C1 (Homo sapiens, UniProt P09871); test: Test Code 026 (C1 inhibitor): activated human C1 destroys fluid phase human C2 in presence of C4; type: biochemical; details: activity in wells, twofold serial dilution; higher well number indicates higher activity
Description: as §1, §2, §3

[3] = tested on: human complement (C3-C9); test: Test Code 035 (C3-C9 inhibitor): lysis of EAC 142 by late components of human complement; type: biochemical; details: activity in wells, twofold serial dilution; higher well number indicates higher activity
Description: as §1, §2, §3

[4] = tested on: whole complement; test: In vivo activity (Guinea Pig): serum whole complement by capillary tube assay after dosing; details: Intraperitoneal, 200 mg/kg

human C1, sequence (P09871 16-688): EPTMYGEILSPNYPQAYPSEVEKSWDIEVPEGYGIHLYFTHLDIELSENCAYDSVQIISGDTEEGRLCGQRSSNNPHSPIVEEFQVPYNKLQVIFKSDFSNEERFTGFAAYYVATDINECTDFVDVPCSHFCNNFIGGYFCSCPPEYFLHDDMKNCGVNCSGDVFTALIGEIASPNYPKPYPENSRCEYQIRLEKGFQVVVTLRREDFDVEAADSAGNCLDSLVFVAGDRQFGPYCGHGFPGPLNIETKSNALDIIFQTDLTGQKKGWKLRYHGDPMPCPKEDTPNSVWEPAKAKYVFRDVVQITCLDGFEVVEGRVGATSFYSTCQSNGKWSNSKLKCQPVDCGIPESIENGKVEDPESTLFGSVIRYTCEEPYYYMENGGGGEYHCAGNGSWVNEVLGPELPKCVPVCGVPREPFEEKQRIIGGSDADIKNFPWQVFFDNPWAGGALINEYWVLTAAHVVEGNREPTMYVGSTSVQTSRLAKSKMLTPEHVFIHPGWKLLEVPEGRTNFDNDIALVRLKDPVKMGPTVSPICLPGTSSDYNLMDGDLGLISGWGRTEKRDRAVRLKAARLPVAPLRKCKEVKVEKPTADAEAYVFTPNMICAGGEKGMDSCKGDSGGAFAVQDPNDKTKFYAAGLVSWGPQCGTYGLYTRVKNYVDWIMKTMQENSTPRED
human C1, sequence (P00736 18-705 partner): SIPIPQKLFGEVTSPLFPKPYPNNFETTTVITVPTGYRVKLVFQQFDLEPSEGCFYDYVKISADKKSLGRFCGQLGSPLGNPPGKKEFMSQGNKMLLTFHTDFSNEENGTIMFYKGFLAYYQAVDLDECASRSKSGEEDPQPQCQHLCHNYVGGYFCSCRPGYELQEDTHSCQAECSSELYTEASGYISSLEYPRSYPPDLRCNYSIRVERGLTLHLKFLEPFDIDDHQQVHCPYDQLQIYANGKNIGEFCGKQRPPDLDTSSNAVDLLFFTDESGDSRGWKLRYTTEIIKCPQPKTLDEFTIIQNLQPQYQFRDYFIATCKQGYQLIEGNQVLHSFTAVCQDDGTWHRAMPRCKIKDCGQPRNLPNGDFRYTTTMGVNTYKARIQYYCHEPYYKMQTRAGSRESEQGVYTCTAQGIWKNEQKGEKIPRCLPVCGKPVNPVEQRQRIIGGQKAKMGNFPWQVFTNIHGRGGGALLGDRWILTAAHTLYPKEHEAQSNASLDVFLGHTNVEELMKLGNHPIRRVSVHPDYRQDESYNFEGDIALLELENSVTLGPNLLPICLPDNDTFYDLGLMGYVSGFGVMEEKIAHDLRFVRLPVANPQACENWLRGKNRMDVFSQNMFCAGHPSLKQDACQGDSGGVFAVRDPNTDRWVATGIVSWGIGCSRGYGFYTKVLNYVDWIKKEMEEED
human C1, sequence (P02745 23-245 partner): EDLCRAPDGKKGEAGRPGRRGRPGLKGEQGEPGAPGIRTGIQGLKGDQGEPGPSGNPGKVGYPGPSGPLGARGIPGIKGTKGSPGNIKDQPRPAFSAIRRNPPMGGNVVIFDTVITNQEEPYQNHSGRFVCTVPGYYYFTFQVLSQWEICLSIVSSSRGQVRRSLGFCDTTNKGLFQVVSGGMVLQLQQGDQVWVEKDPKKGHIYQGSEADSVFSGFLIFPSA
human C1, sequence (P02746 28-253 partner): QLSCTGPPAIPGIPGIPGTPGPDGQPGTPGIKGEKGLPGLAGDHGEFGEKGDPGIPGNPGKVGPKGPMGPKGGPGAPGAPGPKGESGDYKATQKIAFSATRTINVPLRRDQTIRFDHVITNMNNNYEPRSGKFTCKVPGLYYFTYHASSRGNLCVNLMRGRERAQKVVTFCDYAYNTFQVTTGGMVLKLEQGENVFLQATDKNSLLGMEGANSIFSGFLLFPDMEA
human C1, sequence (P02747 29-245 partner): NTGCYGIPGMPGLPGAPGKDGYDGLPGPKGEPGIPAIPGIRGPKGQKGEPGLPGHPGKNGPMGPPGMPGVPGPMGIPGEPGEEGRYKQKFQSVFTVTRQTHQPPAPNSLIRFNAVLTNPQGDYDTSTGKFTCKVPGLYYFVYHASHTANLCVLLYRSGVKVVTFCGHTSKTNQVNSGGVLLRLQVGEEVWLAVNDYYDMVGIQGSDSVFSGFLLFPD

O=S(=O)(O)OC[C@H]1O[C@@H](OC[C@H]2O[C@H](OC[C@H]3O[C@H](OS(=O)(=O)O)[C@H](OS(=O)(=O)O)[C@@H](OS(=O)(=O)O)[C@@H]3OS(=O)(=O)O)[C@H](OS(=O)(=O)O)[C@@H](OS(=O)(=O)O)[C@H]2OS(=O)(=O)O)[C@H](OS(=O)(=O)O)[C@@H](OS(=O)(=O)O)[C@@H]1O[C@H]1O[C@H](COS(=O)(=O)O)[C@@H](O[C@H]2O[C@H](COS(=O)(=O)O)[C@@H](OS(=O)(=O)O)[C@H](OS(=O)(=O)O)[C@H]2OS(=O)(=O)O)[C@H](OS(=O)(=O)O)[C@H]1OS(=O)(=O)O [drawing 15, O-α-D-glucopyranosyl(1→4)-O-α-D-glucopyranosyl(1→4)-O-β-D-glucopyranosyl(1→6)-O-α-D-galactopyranosyl(1→6)-α-D-glucopyranose [(glc 1α,4)2 glc 1β,6 gal 1α,6 glc] heptadecakis(H-sulfate), heptadecasodium salt]
Shunt Inhibition 036 Wells [1]: +6 Wells | C1 026 Wells [2]: +9 Wells | C-Late 035 Wells [3]: +2 Wells

O=S(=O)(O)OC[C@H]1O[C@@H](OC[C@H]2O[C@H](OC[C@H]3OC(OS(=O)(=O)O)[C@H](OS(=O)(=O)O)[C@@H](OS(=O)(=O)O)[C@@H]3OS(=O)(=O)O)[C@H](OS(=O)(=O)O)[C@@H](OS(=O)(=O)O)[C@H]2OS(=O)(=O)O)[C@H](OS(=O)(=O)O)[C@@H](OS(=O)(=O)O)[C@@H]1O[C@H]1O[C@H](COS(=O)(=O)O)[C@@H](O[C@H]2O[C@H](COS(=O)(=O)O)[C@@H](O[C@H]3O[C@H](COS(=O)(=O)O)[C@@H](O[C@H]4O[C@H](COS(=O)(=O)O)[C@@H](O[C@H]5O[C@H](COS(=O)(=O)O)[C@@H](O[C@H]6O[C@H](COS(=O)(=O)O)[C@@H](OS(=O)(=O)O)[C@H](OS(=O)(=O)O)[C@H]6OS(=O)(=O)O)[C@H](OS(=O)(=O)O)[C@H]5OS(=O)(=O)O)[C@H](OS(=O)(=O)O)[C@H]4OS(=O)(=O)O)[C@H](OS(=O)(=O)O)[C@H]3OS(=O)(=O)O)[C@H](OS(=O)(=O)O)[C@H]2OS(=O)(=O)O)[C@H](OS(=O)(=O)O)[C@H]1OS(=O)(=O)O (stereo partly drawn) [drawing 17, O-α-D-glucopyranosyl(1→4)-O-α-D-glucopyranosyl(1→4)-O-α-D-glucopyranosyl(1→4)-O-α-D-glucopyranosyl(1→4)-O-α-D-glucopyranosyl(1→4)-O-α-D-glucopyranosyl(1→4)-O-β-D-glucopyranosyl(1→6)-O-α-D-galactopyranosyl(1→6)-D-glucopyranose [(glc 1α,4)6 glc 1β,6 gal 1α,6 glc] nonacosakis (H-sulfate), non-acosasodium salt]
Shunt Inhibition 036 Wells [1]: +5 Wells | C1 026 Wells [2]: +9 Wells | C-Late 035 Wells [3]: +3 Wells

O=S(=O)(O)OC[C@H]1O[C@@H](OC[C@H]2O[C@H](OC[C@H]3OC(OS(=O)(=O)O)[C@H](OS(=O)(=O)O)[C@@H](OS(=O)(=O)O)[C@@H]3OS(=O)(=O)O)[C@H](OS(=O)(=O)O)[C@@H](OS(=O)(=O)O)[C@H]2OS(=O)(=O)O)[C@H](OS(=O)(=O)O)[C@@H](OS(=O)(=O)O)[C@@H]1O[C@H]1O[C@H](COS(=O)(=O)O)[C@@H](O[C@H]2O[C@H](COS(=O)(=O)O)[C@@H](O[C@H]3O[C@H](COS(=O)(=O)O)[C@@H](O[C@H]4O[C@H](COS(=O)(=O)O)[C@@H](O[C@H]5O[C@H](COS(=O)(=O)O)[C@@H](O[C@H]6O[C@H](COS(=O)(=O)O)[C@@H](OS(=O)(=O)O)[C@H](OS(=O)(=O)O)[C@H]6OS(=O)(=O)O)[C@H](OS(=O)(=O)O)[C@H]5OS(=O)(=O)O)[C@H](OS(=O)(=O)O)[C@H]4OS(=O)(=O)O)[C@H](OS(=O)(=O)O)[C@H]3OS(=O)(=O)O)[C@H](OS(=O)(=O)O)[C@H]2OS(=O)(=O)O)[C@H](OS(=O)(=O)O)[C@H]1OS(=O)(=O)O (stereo partly drawn) [drawing 16, O-α-D-glucopyranosyl(1→4)-O-α-D-glucopyranosyl(1→4)-O-α-D-glucopyranosyl(1→4)-O-α-D-glucopyranosyl(1→4)-O-α-D-glucopyranosyl(1→4)-O-α-D-glucopyranosyl(1→4)-O-β-D-glucopyranosyl(1→6)-O-α-D-galactopyranosyl(1→6)-D-glucopyranose [(glc 1α,4)6 glc 1β,6 gal 1α,6 glc] nonacosakis (H-sulfate), non-acosasalt with trimethylamine]
Shunt Inhibition 036 Wells [1]: +5 Wells | C1 026 Wells [2]: +10 Wells | C-Late 035 Wells [3]: +1 Wells

O=S(=O)(O)OC[C@H]1O[C@@H](OC[C@H]2O[C@H](OC[C@H]3O[C@H](OS(=O)(=O)O)[C@H](OS(=O)(=O)O)[C@@H](OS(=O)(=O)O)[C@@H]3OS(=O)(=O)O)[C@H](OS(=O)(=O)O)[C@@H](OS(=O)(=O)O)[C@H]2OS(=O)(=O)O)[C@H](OS(=O)(=O)O)[C@@H](OS(=O)(=O)O)[C@@H]1O[C@@H]1O[C@H](COS(=O)(=O)O)[C@@H](OS(=O)(=O)O)[C@H](OS(=O)(=O)O)[C@H]1OS(=O)(=O)O [drawing 12, O-β-D-glucopyranosyl(1→4)-O-β-D-glucopyranosyl(1→6)-O-α-D-galactopyrranosyl(1→6)-α-D-glucopyranose [glc 1β,4 glc 1β,6 gal 1α,6 glc] tetradecakis (H-sulfate), tetradecasalt with trimethylamine]
Shunt Inhibition 036 Wells [1]: +4 Wells | C1 026 Wells [2]: +9 Wells

O=S(=O)(O)OC[C@H]1O[C@H](OC[C@H]2O[C@H](OS(=O)(=O)O)[C@H](OS(=O)(=O)O)[C@@H](OS(=O)(=O)O)[C@@H]2OS(=O)(=O)O)[C@H](OS(=O)(=O)O)[C@@H](OS(=O)(=O)O)[C@H]1OS(=O)(=O)O
C1 026 Wells [2]: +8 Wells

O=S(=O)(O)OC[C@H]1O[C@@H](OC[C@H]2O[C@H](OC[C@H]3O[C@H](OS(=O)(=O)O)[C@H](OS(=O)(=O)O)[C@@H](OS(=O)(=O)O)[C@@H]3OS(=O)(=O)O)[C@H](OS(=O)(=O)O)[C@@H](OS(=O)(=O)O)[C@H]2OS(=O)(=O)O)[C@H](OS(=O)(=O)O)[C@@H](OS(=O)(=O)O)[C@@H]1O[C@H]1O[C@H](COS(=O)(=O)O)[C@@H](O[C@H]2O[C@H](COS(=O)(=O)O)[C@@H](OS(=O)(=O)O)[C@H](OS(=O)(=O)O)[C@H]2OS(=O)(=O)O)[C@H](OS(=O)(=O)O)[C@H]1OS(=O)(=O)O [drawing 14, O-α-D-glucopyranosyl(1→4)-O-α-D-glucopyranosyl(1→4)-O-β-D-glucopyranosyl(1→6)-O-α-D-galactopyranosyl(1→6)-α-D-glucopyranose [(glc 1α,4)2 glc 1β,6 gal 1α,6 glc] heptadecakis(H-sulfate), heptadecasalt with trimethylamine]
C1 026 Wells [2]: +9 Wells | C-Late 035 Wells [3]: +1 Wells

O=S(=O)(O)OC[C@H]1O[C@@H](OC[C@H]2O[C@H](OC[C@H]3O[C@H](OS(=O)(=O)O)[C@H](OS(=O)(=O)O)[C@@H](OS(=O)(=O)O)[C@@H]3OS(=O)(=O)O)[C@H](OS(=O)(=O)O)[C@@H](OS(=O)(=O)O)[C@H]2OS(=O)(=O)O)[C@H](OS(=O)(=O)O)[C@@H](OS(=O)(=O)O)[C@@H]1O[C@@H]1O[C@H](COS(=O)(=O)O)[C@@H](OS(=O)(=O)O)[C@H](OS(=O)(=O)O)[C@H]1OS(=O)(=O)O [drawing 13, O-β-D-glucopyranosyl(1→4)-O-β-D-glucopyranosyl(1→6)-O-α-D-galactopyranosyl(1→6)-α-D-glucopyranose [glc 1β,4 glc 1β,6 gal 1α,6 glc] tetradecakis (H-sulfate), tetradecasodium salt]
C1 026 Wells [2]: +9 Wells | In vivo Activity (Guinea Pig) % Inhibition ([4]; 30 min): -25% | In vivo Activity (Guinea Pig) % Inhibition ([4]; 60 min): -34% | In vivo Activity (Guinea Pig) % Inhibition ([4]; 120 min): -60%

O=S(=O)(O)OC[C@H]1O[C@@H](OC[C@H]2O[C@H](OC[C@H]3O[C@H](OS(=O)(=O)O)[C@H](OS(=O)(=O)O)[C@@H](OS(=O)(=O)O)[C@@H]3OS(=O)(=O)O)[C@H](OS(=O)(=O)O)[C@@H](OS(=O)(=O)O)[C@H]2OS(=O)(=O)O)[C@H](OS(=O)(=O)O)[C@@H](OS(=O)(=O)O)[C@H]1OS(=O)(=O)O [drawing 6, O-β-D-galactopyranosyl(1→6)-O-α-D-galactopyranosyl(1→6)-α-D-glucopyranose [gal 1β,6 gal 1α,6 glc] undecakis (H-sulfate), undecasalt with trimethylamine]
C1 026 Wells [2]: +9 Wells

O=S(=O)(O)OC[C@H]1O[C@@H](OC[C@H]2O[C@H](OC[C@H]3O[C@H](OS(=O)(=O)O)[C@H](OS(=O)(=O)O)[C@@H](OS(=O)(=O)O)[C@@H]3OS(=O)(=O)O)[C@H](OS(=O)(=O)O)[C@@H](OS(=O)(=O)O)[C@H]2OS(=O)(=O)O)[C@H](OS(=O)(=O)O)[C@@H](OS(=O)(=O)O)[C@H]1OS(=O)(=O)O [drawing 7, O-β-D-galactopyranosyl(1→6)-O-α-D-galactopyranosyl(1→6)-α-D-glucopyranose [gal 1β,6 gal 1α,6 glc] undecakis (H-sulfate), undecasodium salt]
C1 026 Wells [2]: +9 Wells | In vivo Activity (Guinea Pig) % Inhibition ([4]; 30 min): -30% | In vivo Activity (Guinea Pig) % Inhibition ([4]; 60 min): -17% | In vivo Activity (Guinea Pig) % Inhibition ([4]; 120 min): -56%

From patent US4221907A, “Substituted O-α-D and O-β-D-multi-galactopyranosyl and glucopyranosyl 1→4 and 1→6 galactopyranosyl 1→6 α-D-glucopyranoses” (American Cyanamid Company, priority 1979, dated 1980)
